Consider one compound from patent publication US7790364B2, “Compositions and methods for high throughput screening of pharmacological chaperones” (The Board of Trustees of the Leland Stanford Junior …, priority 2006, dated 2010).

Holding throughout (format): cell-based
Assay [1] has as its target T1, 4S-ΔF508 CFTR (Homo sapiens, UniProt P13569, DEL508-508/INS895[…]).
T1 construct: antibodies against the CFTR C-terminus to test for complete open reading frame; 4 x S-tag (KETAAAKFERQHMDS) with GGGG spacers, in the 4th extracellular loop; expressed in transfected cells
Description: RNAase S complementation screening assay on 4S-ΔF508 CFTR expressing CHO cells. Particulars: LOPAC1280 library screen. As to the method:
Optimize conditions for homogeneous cell-based assay for ΔF508-CFTR rescue. Surface detection of S-protein tagged CFTR used reconstitution of RNAase S activity and detection with the fluorogenic probe 6-F-dArUdAdA-6-TMR.
Screening was carried out on a customized apparatus (SAGIAN, Beckman) containing a 3-m rail Optimized Robot for Chemical Analysis that integrates the following robot-accessible instruments on a 4×2-m optical table: (a) SAGIAN 180 CO2 incubator, which holds 180 standard microplates in a storage carousel; (b) Elx405-Select plate washer with valve option and vacuum-sensing/waste alert for complex automated wash cycles; (c) SAGIAN MPS-8 CS incubator (holds eight standard microplates at 4-37±1° C.); […] SAGIAN shaker (six plate positions, frequency range 40-1100 rpm with variable amplitude); (e) Biomek 2000 liquid handling work station (installed with four positions to hold tip boxes with automatic air locks and six positions for microplates and liquid reservoirs, and MP 20 and MP 200 8-channel tip tools for liquid transfer); (f) SAGIAN carousel (holding 40 pipette tip boxes and 90 microplates); (g) SAGIAN bar code reader; (h) SAGIAN microplate lidding station with automatic vacuum control of six suction cups; (i) two FluoStar fluorescence plate readers (BMG Lab Technologies), each equipped with two-syringe pumps.
Data collection and analysis. […]

For assay [2], the target named is T1, 4S-ΔF508 CFTR. Description: Western blotting of CFTR expression in cells exposed to compound. The conditions noted are these: FIG. 10. Background: In western blotting, separated proteins are transferred to a membrane and probed.
In assay [3] the target is T1, 4S-ΔF508 CFTR. Description: Immunofluorescence labeling using polyclonal S-tag antibody. The conditions noted are these: varying doses, FIG. 11.
The target of assay [4] is T1, 4S-ΔF508 CFTR. Description: FACS assay measuring S-tag epitopes at the cell surface with a polyclonal antibody. The conditions noted are these: for surface expression of CFTR (FACS): different concentrations, 1 or 2 days, with or without induction of 4S tag delta F508 expression, compared with 28° C. positive control. The source says: The library was screened against 4S-ΔF508 CFTR expressing CHO cells using the assay described in Example 2 above. Each of these compounds was retested using an FACS assay to measure S-tag epitopes at the cell surface with a polyclonal antibody, as shown in FIG. 8.
For orientation: A flow cytometer gives signals particle by particle.

T1 sequence (P13569 with tags, fused parts or gaps DEL508-508/INS895[withheld]): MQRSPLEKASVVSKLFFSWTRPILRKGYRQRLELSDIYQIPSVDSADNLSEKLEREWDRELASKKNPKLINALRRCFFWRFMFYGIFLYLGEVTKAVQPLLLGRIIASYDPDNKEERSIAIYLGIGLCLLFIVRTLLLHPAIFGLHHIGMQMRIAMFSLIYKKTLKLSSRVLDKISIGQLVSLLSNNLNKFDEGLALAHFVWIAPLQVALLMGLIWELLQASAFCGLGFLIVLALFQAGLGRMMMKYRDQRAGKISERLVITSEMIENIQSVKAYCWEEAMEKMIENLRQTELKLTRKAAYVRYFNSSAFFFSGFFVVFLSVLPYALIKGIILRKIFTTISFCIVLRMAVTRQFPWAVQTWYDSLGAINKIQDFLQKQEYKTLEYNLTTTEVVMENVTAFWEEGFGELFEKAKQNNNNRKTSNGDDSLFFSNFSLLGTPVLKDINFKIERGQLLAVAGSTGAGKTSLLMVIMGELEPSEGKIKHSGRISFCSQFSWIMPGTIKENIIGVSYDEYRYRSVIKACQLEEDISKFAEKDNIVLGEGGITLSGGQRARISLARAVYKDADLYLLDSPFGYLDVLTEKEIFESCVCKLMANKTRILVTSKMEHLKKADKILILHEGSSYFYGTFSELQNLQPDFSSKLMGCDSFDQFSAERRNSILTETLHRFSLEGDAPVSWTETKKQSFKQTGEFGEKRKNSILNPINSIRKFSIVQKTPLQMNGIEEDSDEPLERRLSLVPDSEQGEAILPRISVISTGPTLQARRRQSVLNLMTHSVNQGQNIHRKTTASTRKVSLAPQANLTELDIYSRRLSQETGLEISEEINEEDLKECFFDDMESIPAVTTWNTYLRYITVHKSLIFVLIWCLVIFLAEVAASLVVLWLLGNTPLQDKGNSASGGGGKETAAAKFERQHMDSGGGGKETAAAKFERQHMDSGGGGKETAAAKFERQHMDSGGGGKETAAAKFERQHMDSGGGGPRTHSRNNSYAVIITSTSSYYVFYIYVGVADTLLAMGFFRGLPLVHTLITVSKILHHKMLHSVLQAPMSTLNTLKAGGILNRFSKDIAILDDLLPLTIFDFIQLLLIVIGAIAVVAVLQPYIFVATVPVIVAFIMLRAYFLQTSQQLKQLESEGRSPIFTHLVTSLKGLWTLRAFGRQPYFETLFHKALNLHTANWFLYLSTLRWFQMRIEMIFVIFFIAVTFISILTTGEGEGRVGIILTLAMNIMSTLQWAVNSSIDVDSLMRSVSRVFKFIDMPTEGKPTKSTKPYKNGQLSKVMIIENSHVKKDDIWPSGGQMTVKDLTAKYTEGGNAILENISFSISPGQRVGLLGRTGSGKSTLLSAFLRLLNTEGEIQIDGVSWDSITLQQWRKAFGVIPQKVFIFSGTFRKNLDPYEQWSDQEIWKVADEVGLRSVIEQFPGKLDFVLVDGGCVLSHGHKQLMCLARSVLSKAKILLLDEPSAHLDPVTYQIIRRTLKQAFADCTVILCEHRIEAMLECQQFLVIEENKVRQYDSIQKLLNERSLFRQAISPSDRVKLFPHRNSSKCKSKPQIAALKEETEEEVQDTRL

Turning to `O=C(/C=C/c1ccc(O)cc1)c1ccc(O)cc1O` [Compound 6, 4,2′,4′-trihydroxychalcone], on 4S-ΔF508 CFTR [1], the “activity in the assays of the invention” value was “active”. The “expression of the protein assessed by western blotting” value at 4S-ΔF508 CFTR [2] was “increased expression”. Besides, the “expression by immunofluorescence labeling using polyclonal S-tag antibody” value on 4S-ΔF508 CFTR [3] is “increased expression”. The “activity in the rescreening assays” value at 4S-ΔF508 CFTR [4] (FACS, S-tag epitopes at the cell surface) is “active”. In addition, the “surface expression of CFTR (FACS)” value on 4S-ΔF508 CFTR [4] was “significant, dose dependent increase”; on 4S-ΔF508 CFTR [4] (listed as isoliquiritigenin), “significant and dose-dependent upregulation”.
